The text below walks through data of patent US9096536B2, “Asymmetrically substituted anthrapyridazone derivatives as cytostatics” (BS-154 S.P. ZO.O., priority 2011, dated 2015).

One assay deals with HL60/DX. Briefly: Cytostatic activity in vitro, doxorubicin-induced resistant subline (MRP). Format: cell-based, human. The settings on record: for RI resistance index HL60/DX: IC50(resistant cells)/IC50(sensitive cells). From the text: (§1) Tables 3 and 4 show cytostatic activity in vitro of 2,6-disubstituted and 2- or 6-monosubstituted (Tab.3), and of 2,5-disubstituted-(Tab.-4) tetracyclic anthrapyridazone derivatives using leukemia cell line HL-60 and the resistant cell sublines with resistance induced by vincristine (MDR-1) or doxorubicin (MRP). Activity of compounds is differentiated depending on their structure, but in all cases resistance indexes are more advantageous in comparison with reference compounds: doxorubicin and mitoxantrone.

Assay [1] has as its system human promyelocytic leukemia cell line HL-60. Briefly: Cytostatic activity in vitro, HL-60 sensitive line. Format: cell-based. The following applies: read-out: HL60 IC50.
From the text: as §1

Assay [2] has as its system human prostate cancer cell line PC3. Briefly: Cytostatic activity in vitro, prostate cancer PC3. Format: cell-based. The settings on record: 72 h continuous exposure. From the text: (§2) Table 5 presents activity in vitro of anthrapiridazone derivatives towards three cell lines of prostate cancer, naturally multidrug resistant, in comparison with references doxorubicin, mitoxantrone and taxol.

Another assay has as its system CT-DNA. Briefly: Interaction with isolated CT-DNA, fluorescence competition with ethidium bromide. Format: binding. The settings on record: for IC50: 50% decrease in fluorescence intensity of DNA-bromide ethydine complex; for Kapp relative constant of DNA-compound bonding: Kapp = (1.26/C50) × KEtBr, KEtBr = 10^7M. An excerpt:
It could be supposed that this property explains cytostatic activity of compounds. In Table 9 there are presented quantitative data on the affinity to DNA of tested compounds using the fluorescence method and competitive affinity to DNA of bromine ethydine and tested compounds.

The subject of the next assay is HL60/VINC. Briefly: Cytostatic activity in vitro, vincristine-induced resistant subline (MDR-1). Format: cell-based, human. The settings on record: for RI resistance index HL60/VINC / RI resistance index HL60VINC: IC50(resistant cells)/IC50(sensitive cells); for RI resistance index HL60/VINC: HL60/VINC vs HL60, 72 h; for RI resistance index HL60VINC: 96 h.
From the text: as §1

In assay [3] the test system is human prostate cancer cell line DU145. Briefly: Cytostatic activity in vitro, prostate cancer DU145. Format: cell-based. The following applies: 72 h continuous exposure.
From the text: as §2

Assay [4] has as its system human prostate cancer cell line LNCaP. Briefly: Cytostatic activity in vitro, prostate cancer LNCaP. Format: cell-based. The following applies: 72 h continuous exposure.
From the text: as §2

The mark [5] stands for this setting: 50% inhibition of cell growth after 72 h continuous exposure.
[6] abbreviates: 96 h continuous exposure, read-out: HL60VINC IC50.

The structures appear in SMILES notation. Read-outs that look alike come from different tables or passages of the source.

As usually defined, the IC50 is the concentration that inhibits the measured activity by half. `CN(C)CCn1nc2c3c(c(NCCNCCO)ccc3c1=O)C(=O)c1ccccc1-2` [Compound C-165, 2-[2-(Dimethylamino)ethyl]-6-[2-(2-aminoethylamino)ethanolo]-2,7-dihydro-3H-dibenzo[de,h]cynnoline-3,7-dione]: the IC50 in the assay with HL60/DX (72 h continuous exposure) was determined as 706 ± 57 nM; in assay [1] (setting [5]), 2.1 ± 0.4 nM; in assay [2] it was 51.6 ± 12.4 nM; with CT-DNA, 370 ± 80 nM; in the assay on HL60/VINC (72 h continuous exposure) it was 30.8 ± 4 nM; in assay [3], 14.3 ± 3.3 nM. In assay [4], this compound registered an IC50 of 8.1 ± 1 nM. Further, the “RI resistance index HL60/DX” value in the assay with HL60/DX (HL60/DX vs HL60, 72 h) is recorded as 336.2. For the same compound, the Kapp relative constant of DNA-compound bonding with CT-DNA stood at 3.44e+07 M⁻¹. Moreover, the “RI resistance index HL60/VINC” value in the assay with HL60/VINC came out at 14.7.

In the case of `CNc1ccc2c(=O)n(CCN(C)C)nc3c2c1C(=O)c1ccccc1-3` [PDZ-7, 2-[2-(Dimethylamino)ethyl]-6-(N-methylamino)-2,7-dihydro-3H-dibenzo[de,h]cynnoline-3,7-dione], the IC50 in the assay with HL60/DX (72 h continuous exposure) stood at 620 ± 62 nM; in assay [1] (setting [5]), 21 ± 1 nM; in assay [2], 80.5 ± 12 nM; in the assay with CT-DNA, 1850 ± 160 nM; with HL60/VINC (72 h continuous exposure), 43 ± 2 nM; in assay [3] it was 28.6 ± 2.8 nM. This compound gave an IC50 in assay [4] of 65.4 ± 7.4 nM. Further, in the assay on HL60/DX (HL60/DX vs HL60, 72 h), the “RI resistance index HL60/DX” value was 29.5. In the assay on CT-DNA, this compound yielded a Kapp relative constant of DNA-compound bonding of 6.8e+06 M⁻¹. In the assay on HL60/VINC, the “RI resistance index HL60/VINC” value came out at 2.0.

`CN(C)CCn1nc2c3c(c(NCC(=O)N(C)C)ccc3c1=O)C(=O)c1ccccc1-2` [PDZ-12, 2-[2-(Dimethylamino)ethyl]-6-[(N,N-dimethylacetamido)amino]-2,7-dihydro-3H-dibenzo[de,h]cynnoline-3,7-dione]: the IC50 was 2680 ± 768 nM in the assay on HL60/DX (72 h continuous exposure); 113 ± 7 nM in assay [1] (setting [5]); 947 ± 37 nM in assay [2]; 2640 ± 290 nM in the assay with CT-DNA; 947 ± 111 nM in the assay with HL60/VINC (72 h continuous exposure); 169 ± 47 nM in assay [3]. Moreover, the IC50 in assay [4] was found to be 237 ± 45 nM. Further, in the assay on HL60/DX (HL60/DX vs HL60, 72 h), the “RI resistance index HL60/DX” value is reported as 23.7. In the assay with CT-DNA, this compound gave a Kapp relative constant of DNA-compound bonding of 4.8e+06 M⁻¹. In addition, the “RI resistance index HL60/VINC” value in the assay on HL60/VINC came out at 8.4.

Take `CC(=O)O[C@H]1C(=O)[C@@]2(C)[C@H]([C@H](OC(=O)c3ccccc3)[C@]3(O)C[C@H](OC(=O)[C@H](O)[C@@H](NC(=O)c4ccccc4)c4ccccc4)C(C)=C1C3(C)C)[C@]1(OC(C)=O)CO[C@@H]1C[C@@H]2O` [Taxol, reference compound]: the IC50 amounted to 4 ± 0.4 nM in assay [2] (Homo sapiens); 3.9 ± 0.6 nM in assay [3] (Homo sapiens, DU-145); 1.2 ± 0.3 nM in assay [4] (Homo sapiens, LNCaP).

As to `CC(=O)[C@]1(O)Cc2c(O)c3c(c(O)c2[C@@H](O[C@H]2C[C@H](N)[C@H](O)[C@H](C)O2)C1)C(=O)c1ccccc1C3=O` [Idarubicin, reference compound], in the assay on CT-DNA, the IC50 came out at 500 ± 60 nM and the Kapp relative constant of DNA-compound bonding stood at 2.5e+07 M⁻¹.

Consider `O=C1c2ccccc2C(=O)c2c(NCCNCCO)ccc(NCCNCCO)c21` [Ametantrone, reference compound], for which, in the assay with CT-DNA, the IC50 was determined as 49 ± 6 nM and the Kapp relative constant of DNA-compound bonding is 2.57e+08 M⁻¹.

As to `CN(C)CCn1nc2c3c(cc(NCCNCc4ccccc4)cc3c1=O)C(=O)c1ccccc1-2` [Compound C-171, 2-[2-(Dimethylamino)ethyl]-5-[(2-benzylamino)ethylamino]-2,7-dihydro-3H-dibenzo[de,h]cynnolino-3,7-dion], the figures for the IC50 (in the assay on HL60/DX (96 h continuous exposure); in assay [1] (96 h continuous exposure); in the assay on HL60/VINC (setting [6])) were 564 ± 34 nM, 398 ± 25 nM and 375 ± 18 nM, respectively. For the same compound, the “RI resistance index HL60/DX” value in the assay on HL60/DX (96 h) is recorded as 1.4. For the same compound, in the assay with HL60/VINC, the “RI resistance index HL60VINC” value came out at 0.9.

Consider `CN(C)CCn1nc2c3c(cc(NCCN)cc3c1=O)C(=O)c1ccccc1-2` [Compound C-170, 2-[2-(Dimethylamino)ethyl]-5-(2-aminoetyloamino)-2,7-dihydro-3H-dibenzo[de,h]cynnoline-3,7-dione], for which the results for the IC50 (in the assay on HL60/DX (96 h continuous exposure); in assay [1] (96 h continuous exposure); in the assay on HL60/VINC (setting [6])) were 753 ± 29 nM, 8.2 ± 1 nM and 210 ± 52 nM, respectively. Besides, in the assay on HL60/DX (96 h), the “RI resistance index HL60/DX” value turned out to be 91.9. In the assay with HL60/VINC, the “RI resistance index HL60VINC” value came out at 25.6.
